Measured values from patent publication US8129398B2 (priority 2008, dated 2012).

Molecular target: T1, HIV-integrase (Human immunodeficiency virus type 1 group M subtype B, UniProt P12497)
T1 construct: Recombinant integrase (0.26 ng) was incubated with the beads
Assay: HIV-Integrase Inhibition Activity (SPA bead integration assay with P33 labeled target DNA)
Format: biochemical
Settings: recombinant integrase, class symbols; read-out: in vitro activity
Method in brief: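 Biotinylated substrate DNA on streptavidin SPA beads loaded with recombinant integrase (90 min, 37° C), washed, then inhibitor plus 0.1 fmol P33-labeled target DNA added. Reaction stopped with 10 mM EDTA; integration measured as CPM by scintillation, giving IC50 ranks.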

Structure (SMILES)	IC50 [nM]
CN(C)C(=O)C(=O)N[C@H]1c2nc(C(=O)NCc3ccc(F)cc3)c(O)c(=O)n2C[C@H]2CC[C@]1(C)C2(C)C [Example 183, N′-((7S,10R,11R)-2-((4-Fluorobenzyl)carbamoyl)-3-hydroxy-10,12,12-trimethyl-4-oxo-6,7,8,9,10,11-hexahydro-4H-7,10-methanopyrimido[1,2-a]azocin-11-yl)-N,N-dimethylethanediamide]	10 to 100
COc1cccc(CNC(=O)c2nc3n(c(=O)c2O)CC2CCC3(NC(=O)C(=O)N(C)C)CC2)c1 [Example 373]	< 10
CN(C)C(=O)C(=O)NC12CCC(CC1)Cn1c2nc(C(=O)NCc2ccc(F)cc2CO)c(O)c1=O [Example 122, N′-(2-((4-Fluoro-2-(hydroxymethyl)benzyl)carbamoyl)-3-hydroxy-4-oxo-6,7,8,9-tetrahydro-7,10-ethanopyrimido[1,2-a]azepin-10(4H)-yl)-N,N-dimethylethanediamide]	< 10
CN(C)C(=O)C(=O)NC12CCC(CC1)Cn1c2nc(C(=O)NCCc2cccc(Cl)c2)c(O)c1=O [Example 353]	< 10
O=C(NC12CCC(CC1)Cn1c2nc(C(=O)NCc2ccc(F)cc2)c(O)c1=O)c1ccc2nccn2c1 [Example 239, 7,10-Ethanopyrimido[1,2-a]azepine-2-carboxamide, N-[(4-fluorophenyl)methyl]-4,6,7,8,9,10-hexahydro-3-hydroxy-10-[(imidazo[1,2-a]pyridin-6-ylcarbonyl)amino]-4-oxo-]	< 10
CN(C)C(=O)C(=O)NC12CCC(CC1)Cn1c2nc(C(=O)NCc2ccc(F)cc2-c2nncn2C)c(O)c1=O [Example 109, N′-(2-((4-Fluoro-2-(4-methyl-4H-1,2,4-triazol-3-yl)benzyl)carbamoyl)-3-hydroxy-4-oxo-6,7,8,9-tetrahydro-7,10-ethanopyrimido[1,2-a]azepin-10(4H)-yl)-N,N-dimethylethanediamide]	10 to 100
CN(C)C12CCC(CC1)Cn1c2nc(C(=O)NCc2ccc(F)cc2)c(O)c1=O [Example 150, 10-(Dimethylamino)-N-(4-fluorobenzyl)-3-hydroxy-4-oxo-4,6,7,8,9,10-hexahydro-7,10-ethanopyrimido[1,2-a]azepine-2-carboxamide]	> 100
CN(C)C(=O)C(=O)NC12CCC(CC1)Cn1c2nc(C(=O)NCc2ccc3c(c2)OCO3)c(O)c1=O [Example 362]	< 10
COCCN(C)C(=O)C(=O)NC12CCC(CCn3c1nc(C(=O)NCc1ccc(F)cc1)c(O)c3=O)C2 (stereo not shown) [Example 205, Ethanediamide, N′-[2-[[[(4-fluorophenyl)methyl]amino]carbonyl]-7,8,9,10-tetrahydro-3-hydroxy-4-oxo-8,11-methano-4H-pyrimido[1,2-a]azocin-11(6H)-yl]-N-(2-methoxyethyl)-N-methyl-]	< 10
CNC(=O)C(=O)NC12CCC(Cn3c1nc(C(=O)NCc1ccc(F)cc1)c(O)c3=O)C2 (stereo not shown) [Example 193, Ethanediamide, N-[2-[[[(4-fluorophenyl)methyl]amino]carbonyl]-6,7,8,9-tetrahydro-3-hydroxy-4-oxo-7,10-methanopyrimido[1,2-a]azepin-10(4H)-yl]-N′-methyl-]	< 10
CS(=O)(=O)N1CCN(C(=O)NC23CCC(CC2)Cn2c3nc(C(=O)NCc3ccc(F)cc3)c(O)c2=O)C1=O [Example 23, N-(4-Fluorobenzyl)-3-hydroxy-10-(((3-(methylsulfonyl)-2-oxo-1-imidazolidinyl)carbonyl)amino)-4-oxo-4,6,7,8,9,10-hexahydro-7,10-ethanopyrimido[1,2-a]azepine-2-carboxamide]	< 10
CN(C)C(=O)COC12CCC(CC1)Cn1c2nc(C(=O)NCc2ccc(F)cc2)c(O)c1=O [Example 226, 7,10-Ethanopyrimido[1,2-a]azepine-2-carboxamide, 10-[2-(dimethylamino)-2-oxoethoxy]-N-[(4-fluorophenyl)methyl]-4,6,7,8,9,10-hexahydro-3-hydroxy-4-oxo-]	10 to 100
O=C(NC12CCC(CC1)Cn1c2nc(C(=O)NCc2ccc(F)cc2)c(O)c1=O)C(=O)N1CCC1 [Example 67, 10-((1-Azetidinyl(oxo)acetyl)amino)-N-(4-fluorobenzyl)-3-hydroxy-4-oxo-4,6,7,8,9,10-hexahydro-7,10-ethanopyrimido[1,2-a]azepine-2-carboxamide]	< 10
O=C(NC12CCC(CC1)Cn1c2nc(C(=O)NCc2ccc(F)cc2)c(O)c1=O)c1ccccc1 [Example 36, N-(4-Fluorobenzyl)-3-hydroxy-4-oxo-10-((phenylcarbonyl)amino)-4,6,7,8,9,10-hexahydro-7,10-ethanopyrimido[1,2-a]azepine-2-carboxamide]	< 10
CN(C)C(=O)C(=O)NC12CCC(CC1)Cn1c2nc(C(=O)NCc2csc(-c3ccccc3)n2)c(O)c1=O [Example 359]	< 10
CO[C@H]1C[C@@H](C(=O)NC23CCC(CC2)Cn2c3nc(C(=O)NCc3ccc(F)c(C)c3)c(O)c2=O)N(C(=O)c2cc(C)on2)C1 [Example 296, 7,10-Ethanopyrimido[1,2-a]azepine-2-carboxamide, N-[(4-fluoro-3-methylphenyl)methyl]-4,6,7,8,9,10-hexahydro-3-hydroxy-10-[[[(2S,4S)-4-methoxy-1-[(5-methyl-3-isoxazolyl)carbonyl]-2-pyrrolidinyl]carbonyl]amino]-4-oxo-]	< 10
COc1c(C(=O)NCc2ccc(F)cc2)nc2n(c1=O)CC1CCC2(NC(=O)CCC(=O)O)CC1 [Example 308, Butanoic acid, 4-[[2-[[[(4-fluorophenyl)methyl]amino]carbonyl]-6,7,8,9-tetrahydro-3-methoxy-4-oxo-7,10-ethanopyrimido[1,2-a]azepin-10(4H)-yl]amino]-4-oxo-]	> 100
O=C(NC12CCC(CC1)Cn1c2nc(C(=O)NCc2ccc(F)cc2)c(O)c1=O)C(=O)N1CCC[C@@H]1CO [Example 87, N-(4-Fluorobenzyl)-3-hydroxy-10-((((2R)-2-(hydroxymethyl)-1-pyrrolidinyl)(oxo)acetyl)amino)-4-oxo-4,6,7,8,9,10-hexahydro-7,10-ethanopyrimido[1,2-a]azepine-2-carboxamide]	< 10
CCN(C(=O)C(=O)N(C)C)C12CCC(CC1)Cn1c2nc(C(=O)NCc2ccc(F)cc2)c(O)c1=O [Example 173, N-Ethyl-N-(2-((4-fluorobenzyl)carbamoyl)-3-hydroxy-4-oxo-6,7,8,9-tetrahydro-7,11-ethanopyrimido[1,2-a]azepin-10(4H)-yl)-N′,N′-dimethylethanediamide]	< 10
CN(C)C(=O)C(=O)NC12CCC(CC1)Cn1c2nc(C(=O)NCc2cccc(Cl)c2)c(O)c1=O [Example 380]	< 10
O=C(NC12CCC(CC1)Cn1c2nc(C(=O)NCc2ccc(F)cc2)c(O)c1=O)C(=O)N1CCN(c2ccccn2)CC1 [Example 78, N-(4-Fluorobenzyl)-3-hydroxy-4-oxo-10-((oxo(4-(2-pyridinyl)-1-piperazinyl)acetyl)amino)-4,6,7,8,9,10-hexahydro-7,10-ethanopyrimido[1,2-a]azepine-2-carboxamide]	< 10
CN(C)C(=O)NC12CCC(CC1)Cn1c2nc(C(=O)NCc2ccc(F)cc2)c(O)c1=O [Example 27, 10-((Dimethylcarbamoyl)amino)-N-(4-fluorobenzyl)-3-hydroxy-4-oxo-4,6,7,8,9,10-hexahydro-7,10-ethanopyrimido[1,2-a]azepine-2-carboxamide]	10 to 100
